The subject of one data set is 3T3 fibroblasts. Put plainly: Flow cytometry F2N12S intensity ratio in 3T3 fibroblasts. As to conditions: data not shown. The format is cell-based. An excerpt:
(§1) The probe of the invention F2N12S has been combined with PI and the fluorescence intensities of PI have been represented as a function of the T*/N* ratio of F2N12S (FIG. 6c). In this case, the populations of apoptotic and dead cells are clearly discriminated by using the differences in the PI intensities. […] This conclusion was further strengthened when the populations discriminated by the F2N12S/PI couple were colored according to their response with the annexin V-FITC/PI couple (FIG. 6d).

Data set [1] deals with human lymphoid cell line CEM T. Put plainly: Toxicity test by flow cytometry using PI. The class given is cell-based. As to conditions: 1 μM F2N12S; 0.5, 1 and 4 hours incubation. How it is done: The toxicity of the F2N12S molecules was tested by flow cytometry using PI (19 μM). Cells were washed twice as described above and separated in nine batches: three batches for control measurements, three batches with 10^-7 M F2N12S and three batches with 10^-6 M F2N12S. The batches were incubated for 0.5 hour, 1 hour and 4 hours, respectively. The 488 nm line of an argon laser was used as the excitation light source. Emission was collected by using the 630FD22 filter.
Next, the cytotoxicity of the newly synthesized probe, F2N12S, was evaluated on the human lymphoid cell line CEM T. F2N12S was added at 0.1 μM (working concentration) and 1 μM and, incubated for different times (0.5, 1 and 4 hours).
A general note: A flow cytometer gives signals particle by particle.

The next data set relates to L 929 cells. The experiment in a line: Confocal fluorescence imaging of L 929 cells stained with 3-HF probes. The format is cell-based. On the procedure:
FIG. 1: (a) Formula and location of 3-HF probes of the prior art F and F2N8 and of the probe of the invention F2N12S in phospholipid bilayers (a). Confocal fluorescence images of L 929 cells stained with probes F (b), F2N8 (c) and F2N12S (d). All images were obtained by collecting fluorescence in the 585-700 nm wavelength range 10 min after probe addition. Scale bar, 10 μm (b).
The cells were washed twice by HBSS before each experiment to eliminate fetal bovine serum. In sorting experiments, cells were resuspended in the binding buffer and labeled with the annexin V-FITC kit. For fluorescence measurements with the probe of the invention F2N12S (fluorometry, flow cytometry and confocal microscopy), cells were resuspended in HBSS with 0.1 μM F2N12S. Then, the cell suspension was placed in a shaker bath for 10 min in the incubator. The staining pattern of the cells was checked with a Confocal Imaging System MRC-1024 (BioRad) to ascertain that fluorescence originates from the plasma membrane.
For collecting cell images, a Laser Scanning Confocal Imaging System MRC-1024 (Bio-Rad) was used. […] Collected images were analyzed by the Amira 3.0 software.
Confocal laser microscopy have been performed on adherent L 929 cells stained with these first generation molecules (FIG. 1.b, c). The obtained fluorescence images reveal a rapid penetration of these dyes inside the cells. […]

The test system of the next data set is HeLa cells. The experiment in a line: Flow cytometry F2N12S intensity ratio in HeLa cells. The class given is cell-based. The settings on record: data not shown.
From the text: as §1

In another data set the test system is T lymphoblastoid cells. The experiment in a line: Flow cytometry analysis with annexin V-FITC, PI and F2N12S. The format is cell-based, human.
From the text: FIG. 6: Flow cytometry analysis of T lymphoblastoid cells treated by actinomycin D. Cells were stained by annexin V-FITC, PI and F2N12S. In (a), Annexin V-FITC and PI were selectively excited at 488 nm. Cells are sorted into living, dead and apoptotic cell populations. In (b), F2N12S is selectively excited at 407 nm. Living cells are discriminated from apoptotic and necrotic cells. In (c), the PI fluorescence intensities are plotted versus the T*/N* ratio of F2N12S. Living cells are in green, apoptotic cells are in cyan and dead cells are in orange. In (d), the populations sorted using the F2N12S/PI couple were colored according to their response with the annexin V/PI couple. The wavelengths of maximal transmission and bandwidths of used filters are indicated in brackets.
FIG. 7: Comparison of the intensiometric response of annexin V-FITC (a) with the ratiometric fluorescence response of F2N12S (b). Living, dead and apoptotic cells were identified as described in FIG. 6, by using either the annexin V-FITC/PI (a) or the F2N12S/PI (b) couple of dyes.
FIG. 8: Comparison of the response of annexin V-FITC and F2N12S on non-treated T lymphoblastoid cells stained by annexin V-FITC, PI and F2N12S. In (a), annexin V-FITC and PI were selectively excited at 488 nm. In (b), F2N12S is selectively excited at 407 nm. Cells are sorted into living and dead cell populations.
Human lymphoid CEM T cells were cultured in X-vivo 15 medium (Cambrex, France) at 37° C. in humidified 5% CO2 atmosphere. Cell viability was checked by trypan blue exclusion. Cells were seeded at 5×10^5 cells/ml in the presence or absence of actinomycin D (0.5 μg/ml) for 18 h. Cells were pelleted by centrifugation at 1500 rpm for 5 min and resuspended at 1×10^6 cells/ml in X-vivo 15 medium for experiments.
For the validation of F2N12S in cell cytometry, we used a FASCARIA™ (cell sorter) (BD Biosciences, CA, USA) equipped with an argon laser (488 nm) and a diode laser (407 nm) and emission filters DF30, DF42 and DF20 centered at 530 nm, 585 nm and 610 nm, respectively. The optical pathways corresponding to the argon laser and to the diode laser are independent. Data were analyzed using the FACSDIVA™ (cell sorter) Software (BD Biosciences). The granulation, size and fluorescence intensity were recorded at a rate of ˜1000 cells per second.
T lymphoblastoid cells were treated with actinomycin D and labeled simultaneously by FITC-labeled annexin V, propidium iodide (PI) and F2N12S. […] The emissions of FITC and PI were collected in the spectral regions of 515-545 nm and 600-620 nm, respectively. […] The emission light in this case was collected in two spectral regions: at 515-545 nm to monitor the emission of the N* band and 564-606 nm to collect the emission of the T* band (FIG. 6b). […] The second one is characterized by a high N*/T* intensity ratio (shown in red) and can be assigned to apoptotic and dead cells.
as §1

Where [2] appears, read: actinomycin D-treated cells, probe combined with PI.

Consider “1-dodecanaminium, N-[[2-[4-Diethylaminophenyl]-3-hydroxychromon-6-yl]-methyl]-N-methyl-N-(3-sulfopropyl)-, inner salt [F2N12S]”, for which the “F2N12S intensity ratio values compared with T lymphoblastoid cells” value with 3T3 fibroblasts and in the data set on HeLa cells was “very similar” throughout. The “percentage of dead cells” value in data set [1] was no more than 4%; in the data set with T lymphoblastoid cells (setting [2]) it was 48%; with T lymphoblastoid cells (non-treated T lymphoblastoid cells), 5%. Besides, the “time the probes stay in the plasma membrane (whole observation time)” value in the data set with L 929 cells (L 929 cells in HBSS buffer, limited by lifetime of the cells) is given as “approx. 1 hour”. Further, the “location of probe fluorescence in stained cells” value in the data set with L 929 cells (adherent L 929 cells, images 10 min after probe addition, 585-700 nm) was “emission exclusively from the plasma membranes”. The “percentage of apoptotic cells” value in the data set with T lymphoblastoid cells (setting [2]) turned out to be 19.5%. Further, the “percentage of living cells” value in the data set on T lymphoblastoid cells (setting [2]) worked out at 32.5%.

These data come from US7880021B2, “Compounds and kits for the detection and the quantification of cell apoptosis” (Centre National de la Recherche Scientifique (CNRS), priority 2005, dated 2011).
